Measurements: patent publication US20050187181A1 (University of Maryland, priority 2004, published 2005)
“Also recorded” adds a separate entry of the source. Read-outs that look alike come from different tables or passages of the source.

Columns and labels:
[1] = test system: rat in endotoxic shock (LPS); assay: Endotoxic shock (LPS 10 mg/kg iv) with intravenous inosine infusion; format: in vivo
Description: Pentobarbital-anesthetized (50 mg/kg) rats (380-420 g) had cannulas placed in their femoral artery and vein. Arterial Blood pressure was monitored via the femoral artery cannula. After 15 minutes of stabilization, the rats were injected with 10 mg/kg of lipopolysaccharide (LPS, Sigma Aldrich, serotype 026:B6) in saline via the femoral vein. At the same time, an infusion of saline or inosine (5 mM) in saline or no infusion was begun (5 ml/hr) via the femoral vein cannula. A 5 mM solution of inosine is […]. Arterial pressure and heart rate were monitored throughout the procedure. Survival time was recorded. Supplemental doses (15 mg/kg) of pentobarbital were given via the femoral vein cannula every hour. Rats surviving beyond 8.5 hr had their cannulas removed and were allowed to recover from pentobarbital anesthesia. These rats lived till 48 hours at which time we terminated the experiment. Inosine was administered at a rate of 1.34 mg/ml at 5 ml/hour for 5 hours which is a total of 33.5 mg for 5 hours. In 400 gram rats that is a total of about 83.75 mg/kg over the 5 hour period; 16.75 mg/hr or 402 mg/day.

[2] = test system: rats in severe hemorrhagic shock; conditions: for survival compared to saline and cytidine controls (Kaplan-Meier): single dose of 2.5 mM in saline, 8 rats/group, p<0.001
Description: Pentobarbital-anesthetized rats were subjected to severe hemorrhagic shock. Five groups of eight rats were resuscitated.
Plasma K^+ was measured from plasma taken before hemorrhage, before resuscitation and 0.5 hrs after resuscitation using a K^+ electrode (Jenco Electronics, Inc., San Diego, Calif.). Survival time between groups was compared by Kaplan-Meier survival Analysis.

[3] = test system: murine model of colitis (DSS); conditions: cited from earlier work
[4] = test system: septic shock induced by cecal ligation and puncture (CLP); conditions: cited from earlier work
[5] = test system: lipopolysaccharide-induced shock; conditions: cited from earlier work
[6] = human blood; cited from earlier work
[7] = water; cited from earlier work
Na/K ATPase = Na/K ATPase assay (86Rb uptake into red blood cells);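 further: washed human red blood cells in K-free Ringer, test agent preincubated 20 min, then 86Rb uptake over 4 h at 37 °C counted as CPM per tube versus water control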
Description: Human red blood cells of any group-type were donated for research by the Blood Bank of the University Of Maryland, School of Medicine. Five ml of red cells are washed 3 times in 40 ml of Potassium free Ringers solution (141 mM NaCl, 1 mM H2NaPO4, 0.5 mM CaCl2, 1 mM MgSO4, 4.5 mM glucose, 10 mM HEPES pH7.4). 50 μl of washed red cells are added to 220 μl of potassium free Ringers solution. 30, 10, 3 or 1 μl of ultra-filtrate, HPLC (high performance liquid chromatography) fraction, or adenosine, inosine, guanosine, deoxyadenosine, deoxyguanosine, caffeine, aminophylline, dipyridamole, NBTI, 6thioinosine, 6thioguanosine, or EHNA (all in buffer) is added to the mixture and incubated for 20 min. 4 μCi of 86RbCl is added and incubated for 4 hrs at 37° C. The mixture is than washed three times with 4° C. Potassium free Ringers solution and the cells counted in a gamma counter (Packard, Cobra II). Na/K ATPase activity is expressed as the CPM (counts per minute) (CPM/tube*4 hrs). The effects of ultra-filtrate or HPLC fractions on ^86Rb uptake into red cells are compared to equal volumes of either water (control) or, in some cases, 0.01 mM Ouabain (maximal inhibition).

In the case of `OC[C@H]1O[C@@H](n2cnc3c(O)ncnc32)[C@H](O)[C@@H]1O` [inosine], the “survival compared to saline or no-resuscitation groups (Kaplan-Meier)” value ([1]; continuous infusion 5 ml/hr of 5 mM for 5 hrs) is reported as “survived significantly longer than the saline or no-resuscitation groups”, the “survival / success in resuscitating rats fully” value ([1]; iv infusion 5 mM, 5 ml/hr, 5 hours, observed to 48 hours) is reported as 100% and the “bradycardia on resuscitation from hemorrhagic shock” value ([2]; 2.5 mM in saline) is reported as “did not cause the bradycardia”. For the same molecule, the “time to 50% mortality” value ([2]; 2.5 mM in saline) was “about 100 minutes”, the “time to 100% mortality” value ([2]; 2.5 mM in saline) was “about 150 minutes” and the “effect on shock-elevated plasma K^+” value ([2]; 2.5 mM in saline, 0.5 hr) was “lowered the shock-elevated plasma K^+”. The “Plasma K^+ 0.5 hr after Resuscitation” value ([2]; 2.5 mM in saline, mean ± SE, N = 7/group) was 2.93 ± 0.21 mM, the “adverse effects on resuscitation from hemorrhagic shock” value ([2]; rat, in vivo) was “without any adverse effects” and the “survival compared to saline and cytidine controls (Kaplan-Meier)” value [2] was “survived significantly longer”. For the same molecule, the “survival compared to saline and cytidine controls (Kaplan-Meier)” value ([2]; listed as Inosine) was “survived significantly longer than saline or cytidine controls; also recorded: significantly increased survival”, the mortality ([3]; oral inosine from day one, by day 30) was 60% and the protection of colon ([3]; oral inosine) was “protected the colon from DSS induced inflammatory cell infiltration and lipid peroxidation”. For the same molecule, the organ damage ([4]; 100 mg/kg IP x3) was “significantly reduced”, the survival ([4]; 100 mg/kg IP x3) was “significantly improved” and the mortality ([4]; post-treatment protocol, 100 mg/kg IP x3, at 24 hours) was “about 20%”. The mortality ([4]; post-treatment protocol, at 120 hours) was “about 90%”, the mortality ([4]; post-treatment protocol, by 48 hours) was “about 80%” and the mortality ([4]; pre-treatment protocol, 100 mg/kg IP x3, by 24 hours) was 15%. The mortality ([4]; pre-treatment protocol, by 48 hours) was “about 70%”, the mortality ([4]; pre-treatment protocol, by 120 hours) was “about 75%” and the mortality ([5]; single IP 100 mg/kg 30 minutes before LPS 70 mg/kg IP, at 36 hours) was 19%. The mortality ([5]; single IP 100 mg/kg before LPS, at 60 hours) was 37.5%, the mortality ([5]; single IP 100 mg/kg before LPS, by 96 hours) was 50% and the “survival compared to untreated mice” value ([5]; single IP 100 mg/kg before LPS) was “prolonged survival compared to untreated mice”. The half life [6] was < 1 s, the solubility [7] was “highly soluble in water” and the “relative effectiveness at stimulating Na/K ATPase” value (Na/K ATPase; 10^-3 Molar (FIG. 8)) was “both equally effective”. For the same molecule, the “stimulation of Na/K ATPase” value (Na/K ATPase; human red blood cells, dose response (FIG. 3b, FIG. 8)) was “stimulated Na/K ATPase in a dose-dependent manner” and the “stimulation of Na/K ATPase in the presence of ouabain” value (Na/K ATPase; partial inhibition / sub maximal doses of ouabain (FIG. 9)) was “overcame partial inhibition by ouabain”.
